We go through 10 compounds from patent US20160251332A1, “Herbicidal Compounds” (SYNGENTA PARTICIPATIONS AG, priority 2013, published 2016).

Type in all cases: in vivo
The test system of assay [1] is Amaranthus retroflexus. The experiment in a line: Pre-emergence herbicidal activity, AMARE. To be noted: Application pre-emergence, 1000 g/Ha, evaluated after 13 days, scale 0-5. The method in brief:
(§1)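 Pre-emergence spray, one day post-sowing; vehicle acetone/water (50:50) + 0.5% Tween 20, aqueous dilution. Glasshouse 24/16 °C, 14 h light, 65% RH, watering twice daily. Score at 13 d on 0–5 scale, 5 = total damage.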

The test system of assay [2] is Echinochloa crus-galli. Briefly: Pre-emergence herbicidal activity, ECHCG. To be noted: Application pre-emergence, 1000 g/Ha, evaluated after 13 days, scale 0-5. Summed up:
as §1

Assay [3] has as its system Abutilon theophrasti. Briefly: Pre-emergence herbicidal activity, ABUTH. To be noted: Application pre-emergence, 1000 g/Ha, evaluated after 13 days, scale 0-5. Summed up: as §1
The subject of assay [4] is Setaria faberi. The experiment in a line: Pre-emergence herbicidal activity, SETFA. Particulars: Application pre-emergence, 1000 g/Ha, evaluated after 13 days, scale 0-5. The method in brief:
as §1

Assay [5] has as its system Alopecurus myosuroides. Briefly: Pre-emergence herbicidal activity, ALOMY. Particulars: Application pre-emergence, 1000 g/Ha, evaluated after 13 days, scale 0-5. The method, then: Seeds of a variety of test species were sown in standard soil in pots. After cultivation for one day (pre-emergence) under controlled conditions in a glasshouse (at 24/16° C., day/night; 14 hours light; 65% humidity), the plants were sprayed with an aqueous spray solution derived from the formulation of the technical active ingredient in acetone/water (50:50) solution containing 0.5% Tween 20 (polyoxyethelyene sorbitan monolaurate, CAS RN 9005-64-5). The test plants were then grown in a glasshouse under controlled conditions (at 24/16° C., day/night; 14 hours light; 65% humidity) and watered twice daily. After 13 days, the test was evaluated (5=total damage to plant; 0=no damage to plant).

Assay [6] has as its system Zea mays. The experiment in a line: Pre-emergence herbicidal activity, ZEAMX. To be noted: Application pre-emergence, 1000 g/Ha, evaluated after 13 days, scale 0-5. Summed up: as §1
The subject of assay [7] is Amaranthus retroflexus. The experiment in a line: Post-emergence herbicidal activity, AMARE. Particulars: Application post-emergence, 1000 g/Ha, evaluated after 13 days, scale 0-5. Summed up: (§2)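 Damage was rated 0-5 (5 = total) 13 days after a post-emergence spray of acetone/water (50:50) plus 0.5% Tween 20 formulation. Plants were sprayed at 8 days' growth and kept at 24/16° C, 14 h light, 65% humidity, watered twice daily.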

Assay [8] concerns Abutilon theophrasti. Briefly: Post-emergence herbicidal activity, ABUTH. Particulars: Application post-emergence, 1000 g/Ha, evaluated after 13 days, scale 0-5. The method in brief: as §2
The subject of assay [9] is Setaria faberi. Briefly: Post-emergence herbicidal activity, SETFA. Particulars: Application post-emergence, 1000 g/Ha, evaluated after 13 days, scale 0-5. Summed up: as §2
In assay [10] the test system is Echinochloa crus-galli. The experiment in a line: Post-emergence herbicidal activity, ECHCG. Particulars: Application post-emergence, 1000 g/Ha, evaluated after 13 days, scale 0-5. The method in brief: as §2
Assay [11] has as its system Zea mays. The experiment in a line: Post-emergence herbicidal activity, ZEAMX. Particulars: Application post-emergence, 1000 g/Ha, evaluated after 13 days, scale 0-5. The method in brief:
as §2

Assay [12] has as its system Alopecurus myosuroides. Briefly: Post-emergence herbicidal activity, ALOMY. Particulars: Application post-emergence, 1000 g/Ha, evaluated after 13 days, scale 0-5. The method, then: Seeds of a variety of test species were sown in standard soil in pots. After 8 days cultivation (post-emergence) under controlled conditions in a glasshouse (at 24/16° C., day/night; 14 hours light; 65% humidity), the plants were sprayed with an aqueous spray solution derived from the formulation of the technical active ingredient in acetone/water (50:50) solution containing 0.5% Tween 20 (polyoxyethelyene sorbitan monolaurate, CAS RN 9005-64-5). The test plants were then grown in a glasshouse under controlled conditions (at 24/16° C., day/night; 14 hours light; 65% humidity) and watered twice daily. After 13 days, the test was evaluated (5=total damage to plant; 0=no damage to plant).

As for `CN1CC(O)N(c2cc(C(F)(F)F)c(I)cn2)C1=O` (stereo not drawn) [Compound A5, 4-hydroxy-3-[5-iodo-4-(trifluoromethyl)-2-pyridyl]-1-methyl-imidazolidin-2-one], the AMARE damage score in the assay on Amaranthus retroflexus [1] and in the assay with Amaranthus retroflexus [7] was 5 each time. The ECHCG damage score in the assay with Echinochloa crus-galli [2] and in the assay with Echinochloa crus-galli [10] was 5 in each case. For the same compound, the ABUTH damage score in the assay with Abutilon theophrasti [3] and with Abutilon theophrasti [8] was 5 throughout. Moreover, the SETFA damage score in the assay with Setaria faberi [4] and in the assay with Setaria faberi [9] was 5 in each case. Moreover, the ALOMY damage score is listed as 4 with Alopecurus myosuroides [5] and 5 with Alopecurus myosuroides [12]. The ZEAMX damage score in the assay with Zea mays [6] was determined as 4; with Zea mays [11] it was 5.
Turning to `CN1CC(O)N(c2cc(C(F)(F)F)ccn2)C1=O` (stereo not drawn) [Compound A1, 4-hydroxy-1-methyl-3-[4-(trifluoromethyl)-2-pyridyl]imidazolidin-2-one], the AMARE damage score in the assay on Amaranthus retroflexus [1] and with Amaranthus retroflexus [7] was 5 throughout. For the same compound, the ECHCG damage score in the assay on Echinochloa crus-galli [2] and in the assay on Echinochloa crus-galli [10] was 5 throughout. In addition, the ABUTH damage score with Abutilon theophrasti [3] and in the assay on Abutilon theophrasti [8] was 5 throughout. Besides, the SETFA damage score is listed as 4 in the assay on Setaria faberi [4] and 5 with Setaria faberi [9]. Besides, the ALOMY damage score is 4 in the assay with Alopecurus myosuroides [5] and 5 in the assay with Alopecurus myosuroides [12]. The ZEAMX damage score in the assay with Zea mays [6] is listed as 3; in the assay with Zea mays [11], 5.
For the compound `Cc1cnc(N2C(=O)N(C)CC2O)cc1C(F)(F)F` (stereo not drawn) [Compound A40], the AMARE damage score in the assay on Amaranthus retroflexus [1] and in the assay on Amaranthus retroflexus [7] was 5 each time. In addition, the ECHCG damage score in the assay with Echinochloa crus-galli [2] and in the assay with Echinochloa crus-galli [10] was 5 throughout. The ABUTH damage score in the assay with Abutilon theophrasti [3] and with Abutilon theophrasti [8] was 5 in each case. The SETFA damage score in the assay on Setaria faberi [4] is 4; in the assay on Setaria faberi [9] it was 5. The ALOMY damage score in the assay with Alopecurus myosuroides [5] came to 4; with Alopecurus myosuroides [12], 5. The ZEAMX damage score with Zea mays [6] and with Zea mays [11] was 4 in each case.
Turning to `CN1CC(O)N(c2cc(C(F)(F)F)c(Br)cn2)C1=O` (stereo not drawn) [Compound A19], the AMARE damage score in the assay on Amaranthus retroflexus [1] and in the assay on Amaranthus retroflexus [7] was 5 each time. For the same compound, the ECHCG damage score with Echinochloa crus-galli [2] and with Echinochloa crus-galli [10] was 5 each time. The ABUTH damage score in the assay on Abutilon theophrasti [3] and in the assay on Abutilon theophrasti [8] was 5 throughout. The SETFA damage score in the assay with Setaria faberi [4] and in the assay with Setaria faberi [9] was 5 throughout. In addition, the ALOMY damage score in the assay with Alopecurus myosuroides [5] and in the assay with Alopecurus myosuroides [12] was 5 each time. Further, the ZEAMX damage score with Zea mays [6] is on record as 5; in the assay with Zea mays [11], 4.
Take `CN1CC(O)N(c2cc(C(F)(F)F)c(-c3cccc(S(=O)(=O)N(C)C)c3)cn2)C1=O` (stereo not drawn) [Compound A10]: the AMARE damage score with Amaranthus retroflexus [1] and in the assay with Amaranthus retroflexus [7] was 5 in each case. Moreover, the ECHCG damage score in the assay with Echinochloa crus-galli [2] and in the assay with Echinochloa crus-galli [10] was 5 throughout. The ABUTH damage score with Abutilon theophrasti [3] and in the assay with Abutilon theophrasti [8] was 5 in each case. Besides, the SETFA damage score came to 4 with Setaria faberi [4] and 5 in the assay on Setaria faberi [9]. The ALOMY damage score with Alopecurus myosuroides [5] turned out to be 4; in the assay with Alopecurus myosuroides [12], 5. The ZEAMX damage score in the assay on Zea mays [6] came to 3; with Zea mays [11], 4.
As for `COc1cnc(N2C(=O)N(C)CC2O)cc1C(F)(F)F` (stereo not drawn) [Compound A39], the AMARE damage score in the assay on Amaranthus retroflexus [1] and in the assay with Amaranthus retroflexus [7] was 5 in each case. Also, the ECHCG damage score in the assay on Echinochloa crus-galli [2] was 4; in the assay on Echinochloa crus-galli [10] it was 5. Moreover, the ABUTH damage score in the assay on Abutilon theophrasti [3] and in the assay on Abutilon theophrasti [8] was 5 each time. Further, the values for the SETFA damage score in the assay with Setaria faberi [4] and in the assay on Setaria faberi [9] were 4 and 5, respectively. In addition, the values for the ALOMY damage score in the assay on Alopecurus myosuroides [5] and with Alopecurus myosuroides [12] were 4 and 5, respectively. The ZEAMX damage score in the assay on Zea mays [6] is 2; in the assay with Zea mays [11], 4.
Consider `CN1CC(O)N(c2cc(C(F)(F)F)c(-c3ccc(C#N)cc3)cn2)C1=O` (stereo not drawn) [Compound A16], for which the AMARE damage score in the assay on Amaranthus retroflexus [1] and in the assay with Amaranthus retroflexus [7] was 5 in each case. In addition, the ECHCG damage score with Echinochloa crus-galli [2] is recorded as 3; in the assay with Echinochloa crus-galli [10], 5. The ABUTH damage score came out at 3 in the assay on Abutilon theophrasti [3] and 5 in the assay with Abutilon theophrasti [8]. In addition, the SETFA damage score in the assay on Setaria faberi [4] amounted to 4; in the assay on Setaria faberi [9] it was 5. Moreover, the ALOMY damage score came to 2 in the assay with Alopecurus myosuroides [5] and 5 with Alopecurus myosuroides [12]. In addition, the values for the ZEAMX damage score in the assay with Zea mays [6] and with Zea mays [11] were 3 and 5, respectively.
Consider `CN(C)C(=O)c1cccc(-c2cnc(N3C(=O)N(C)CC3O)cc2C(F)(F)F)c1` (stereo not drawn) [Compound A12], for which the AMARE damage score in the assay with Amaranthus retroflexus [1] came out at 1; in the assay with Amaranthus retroflexus [7], 5. For the same compound, the ECHCG damage score was 1 with Echinochloa crus-galli [2] and 2 in the assay with Echinochloa crus-galli [10]. For the same compound, the ABUTH damage score in the assay with Abutilon theophrasti [3] was found to be 3; in the assay with Abutilon theophrasti [8], 5. Besides, the values for the SETFA damage score in the assay on Setaria faberi [4] and in the assay with Setaria faberi [9] were 1 and 5, respectively. The values for the ALOMY damage score in the assay on Alopecurus myosuroides [5] and with Alopecurus myosuroides [12] were 0 and 2, respectively. Further, the ZEAMX damage score in the assay with Zea mays [6] is 0; in the assay with Zea mays [11], 2.
In the case of `CN1CC(O)N(c2cc(C(F)(F)F)c(-c3cccc(NS(C)(=O)=O)c3)cn2)C1=O` (stereo not drawn) [Compound A8], the values for the AMARE damage score in the assay with Amaranthus retroflexus [1] and in the assay with Amaranthus retroflexus [7] were 2 and 5, respectively. Moreover, the ECHCG damage score with Echinochloa crus-galli [2] and in the assay with Echinochloa crus-galli [10] was 1 each time. For the same compound, the ABUTH damage score with Abutilon theophrasti [3] worked out at 2; with Abutilon theophrasti [8] it was 4. Moreover, the SETFA damage score was found to be 3 in the assay with Setaria faberi [4] and 1 in the assay with Setaria faberi [9]. The ALOMY damage score in the assay with Alopecurus myosuroides [5] and in the assay on Alopecurus myosuroides [12] was 1 throughout. Further, the ZEAMX damage score was 2 in the assay with Zea mays [6] and 1 with Zea mays [11].
For `CN1CC(O)N(c2cc(C(C)(C)F)ccn2)C1=O` (stereo not drawn) [Compound A38], the AMARE damage score with Amaranthus retroflexus [1] and with Amaranthus retroflexus [7] was 5 in each case. The results for the ECHCG damage score in the assay on Echinochloa crus-galli [2] and in the assay on Echinochloa crus-galli [10] were 4 and 5, respectively. Moreover, the ABUTH damage score in the assay on Abutilon theophrasti [3] and with Abutilon theophrasti [8] was 5 throughout. For the same compound, the SETFA damage score came to 4 with Setaria faberi [4] and 5 in the assay on Setaria faberi [9]. Also, the ALOMY damage score is 4 with Alopecurus myosuroides [5] and 5 in the assay with Alopecurus myosuroides [12]. Besides, the ZEAMX damage score is on record as 0 in the assay with Zea mays [6] and 4 in the assay on Zea mays [11].
